Like-named read-outs stand apart in the source and are kept apart here. Marks after values point to notes of the source that are not given here.
Experiments:
[1] = design: species or system human; conditions: pooled urine of children aged 3-6; tentative, exact mass match
[2] = gavage of a technical mixture containing 35% 2IPPDPP; cited from earlier work
[3] = for Depletion rate, slope, first-order kinetics / Depletion rate, slope, zero-order kinetics: linear regression
[4] = for % Depletion: after 60 min (Eq. 1); for Percentage of Initial Parent Administration (Mean ± Std Dev): Total: parents plus quantified metabolites; for Initial parent mass unaccounted for after quantifying suspected metabolites: metabolites with authentic standards available
[5] = cited from earlier work
[6] = cited from earlier work; remark: listed apart in the source
[7] = 2 μM; herring gull liver microsomes; cited from earlier work
[8] = cited from earlier work; remark: listed apart in the source
[9] = polar bear liver microsomes; cited from earlier work
[10] = human liver microsomes; cited from earlier work
[11] = 1 μM, s9 & sulfatase & glucuronidase
[12] = 10 μM, s9 & sulfatase & glucuronidase

Compound	Depletion rate, slope, first-order kinetics ([3]; 1 μM dose)	Depletion rate, slope, zero-order kinetics ([3]; 1 μM dose)	Depletion rate, slope, first-order kinetics ([3]; 10 μM dose)	Depletion rate, slope, zero-order kinetics ([3]; 10 μM dose)	Percentage of Initial Parent Administration (Mean ± Std Dev): parent compound ([4]; 1 μM, Abiotic Control)	% Depletion ([4]; 1 μM, Abiotic Control)	Percentage of Initial Parent Administration (Mean ± Std Dev): parent compound ([4]; 1 μM, Heat-inactivated s9)	% Depletion ([4]; 1 μM, Heat-inactivated s9)	Percentage of Initial Parent Administration (Mean ± Std Dev): parent compound ([4]; 1 μM, s9)	Percentage of Initial Parent Administration (Mean ± Std Dev): parent compound ([4]; 1 μM, s9 & glucuronidase)	% Depletion ([4]; 1 μM, s9 & glucuronidase)	Percentage of Initial Parent Administration (Mean ± Std Dev): parent compound ([4]; 1 μM, s9 & sulfatase)	% Depletion ([4]; 1 μM, s9 & sulfatase)	% Depletion ([4]; 1 μM, s9)	Percentage of Initial Parent Administration (Mean ± Std Dev): parent compound ([4]; 1 μM, unprocessed spike)	Percentage of Initial Parent Administration (Mean ± Std Dev): Total ([4]; 1 μM, unprocessed spike)	Percentage of Initial Parent Administration (Mean ± Std Dev): parent compound ([4]; 10 μM, Abiotic Control)	% Depletion ([4]; 10 μM, Abiotic Control)	Percentage of Initial Parent Administration (Mean ± Std Dev): parent compound ([4]; 10 μM, Heat-inactivated s9)	% Depletion ([4]; 10 μM, Heat-inactivated s9)	also measured
2-phenyl-4H,−4,4-dimethyl-1,1,3,2 -benzodioxapho-sphoran-2-oxide	–	–	–	–	–	–	–	–	–	–	–	–	–	–	–	–	–	–	–	–	Detection in human urine samples (number of samples out of 9) [1]: 1; Detection in rabbit bile [2]: detected
CC(C)c1ccccc1OP(=O)(Oc1ccccc1)Oc1ccccc1 [2IPPDPP, 2-isopropylphenyl diphenyl phosphate]	−0.010 ln[nmol]/min/mg protein	−0.013 ^* nmol/min/mg protein	−0.0048 ln[nmol]/min/mg protein	−0.092 nmol/min/mg protein	105 ± 20%	0%	101 ± 8%	0%	56 ± 10%	65 ± 3%	35%	64 ± 6%	36%	44%	100 ± 13%	100 ± 13%	103 ± 10%	0%	103 ± 11%	0%	Percentage of Initial Parent Administration (Mean ± Std Dev): parent compound [4, 11]: 67 ± 4%; % Depletion [4, 11]: 33%; Percentage of Initial Parent Administration (Mean ± Std Dev): parent compound ([4]; 10 μM, s9): 77 ± 5%; Percentage of Initial Parent Administration (Mean ± Std Dev): parent compound ([4]; 10 μM, s9 & glucuronidase): 82 ± 3%; % Depletion ([4]; 10 μM, s9 & glucuronidase): 18%; Percentage of Initial Parent Administration (Mean ± Std Dev): parent compound [4, 12]: 84 ± 4%; % Depletion [4, 12]: 16%; % Depletion ([4]; 10 μM, s9 & sulfatase): 20%; % Depletion ([4]; 10 μM, s9): 23%; Percentage of Initial Parent Administration (Mean ± Std Dev): parent compound ([4]; 10 μM, unprocessed spike): 100 ± 9%; Initial parent mass unaccounted for after quantifying suspected metabolites [4]: approximately 20%
CC(C)c1ccc(OP(=O)(Oc2ccccc2)Oc2ccccc2)cc1 [4IPPDPP, 4-isopropylphenyl diphenyl phosphate]	−0.015 ln[nmol]/min/mg protein	−0.042 nmol/min/mg protein	−0.0034 ln[nmol]/min/mg protein	−0.097 nmol/min/mg protein	108 ± 23%	0%	82 ± 5%	18%	27 ± 4%	27 ± 1%	73%	29 ± 3%	71%	73%	100 ± 2%	100 ± 13%	94 ± 6%	6%	97 ± 10%	3%	Percentage of Initial Parent Administration (Mean ± Std Dev): parent compound [4, 11]: 32 ± 3%; % Depletion [4, 11]: 68%; Percentage of Initial Parent Administration (Mean ± Std Dev): parent compound ([4]; 10 μM, s9): 55 ± 3%; Percentage of Initial Parent Administration (Mean ± Std Dev): parent compound ([4]; 10 μM, s9 & glucuronidase): 57 ± 2%; % Depletion ([4]; 10 μM, s9 & glucuronidase): 43%; Percentage of Initial Parent Administration (Mean ± Std Dev): parent compound ([4]; 10 μM, s9 & sulfatase): 54 ± 1%; Percentage of Initial Parent Administration (Mean ± Std Dev): parent compound [4, 12]: 55 ± 4%; % Depletion [4, 12]: 45%; % Depletion ([4]; 10 μM, s9 & sulfatase): 46%; % Depletion ([4]; 10 μM, s9): 45%; Percentage of Initial Parent Administration (Mean ± Std Dev): parent compound ([4]; 10 μM, unprocessed spike): 100 ± 3%; Initial parent mass unaccounted for after quantifying suspected metabolites [4]: approximately 20%
CC(C)(C)c1ccc(OP(=O)(Oc2ccccc2)Oc2ccccc2)cc1 [4tBPDPP, 4-tert-butylphenyl diphenyl phosphate]	−0.013 ln[nmol]/min/mg protein	−0.031 nmol/min/mg protein	−0.0013 ln[nmol]/min/mg protein	−0.082 nmol/min/mg protein	84 ± 8%	9%	81 ± 6%	12%	59 ± 11%	56 ± 5%	43%	61 ± 5%	39%	41%	92 ± 4%	100 ± 4%	81 ± 1%	8%	79 ± 11%	12%	Parent converted to DPHP ([5]; 2 μM, 100-min incubation): 41%; Percentage of Initial Parent Administration (Mean ± Std Dev): parent compound [4, 11]: 60 ± 6%; % Depletion [4, 11]: 39%; Percentage of Initial Parent Administration (Mean ± Std Dev): parent compound ([4]; 10 μM, s9): 83 ± 2%; Percentage of Initial Parent Administration (Mean ± Std Dev): parent compound ([4]; 10 μM, s9 & glucuronidase): 72 ± 5%; % Depletion ([4]; 10 μM, s9 & glucuronidase): 23%; Percentage of Initial Parent Administration (Mean ± Std Dev): parent compound ([4]; 10 μM, s9 & sulfatase): 73 ± 9%; Percentage of Initial Parent Administration (Mean ± Std Dev): parent compound [4, 12]: 71 ± 6%; % Depletion [4, 12]: 25%; % Depletion ([4]; 10 μM, s9 & sulfatase): 23%; % Depletion ([4]; 10 μM, s9): 12%; Percentage of Initial Parent Administration (Mean ± Std Dev): parent compound ([4]; 10 μM, unprocessed spike): 89 ± 1%; Percent depletion lower than that of TPHP ([4]; human, pH 7.4): 30–45%
O=P(O)(Oc1ccccc1)Oc1ccccc1 [DPHP, diphenyl phosphate]	–	–	–	–	–	–	–	–	–	–	–	–	–	–	–	–	–	–	–	–	Geometric mean urinary concentration [6]: around 10 nM
CC(C)c1ccccc1OP(=O)(Oc1ccccc1C(C)C)Oc1ccccc1C(C)C [T2IPPP]	–	–	–	–	–	–	–	–	–	–	–	–	–	–	–	–	–	–	–	–	DPHP formation following incubation ([5]; ref Strobel et al., 2018): not detected
O=P(Oc1ccccc1)(Oc1ccccc1)Oc1ccccc1 [TPHP, triphenyl phosphate, reference compound]	−0.032 ^* ln[nmol]/min/mg protein	−0.024 nmol/min/mg protein	−0.0030 ln[nmol]/min/mg protein	−0.032 nmol/min/mg protein	94 ± 7%	6%	88 ± 2%	12%	31 ± 2%	31 ± 3%	69%	23 ± 1%	77%	69%	100 ± 5%	100 ± 5%	95 ± 1%	5%	94 ± 1%	6%	Depletion rate [7]: 22 pmol/min/mg; Depletion rate ([3]; 1 μM dose): 24 pmol/min/mg; Mass of parent lower in the +S9 treatment compared to the unprocessed spike ([4]; 1 μM): 69–77%; Mass of parent lower in the +S9 treatment compared to the unprocessed spike ([4]; 10 μM): 32–37%; Percentage of Initial Parent Administration (Mean ± Std Dev): parent compound ([4]; 10 μM, s9): 68 ± 1%; Percentage of Initial Parent Administration (Mean ± Std Dev): parent compound ([4]; 10 μM, s9 & glucuronidase): 67 ± 1%; % Depletion ([4]; 10 μM, s9 & glucuronidase): 33%; Percentage of Initial Parent Administration (Mean ± Std Dev): parent compound ([4]; 10 μM, s9 & sulfatase): 63 ± 0.2%; % Depletion ([4]; 10 μM, s9 & sulfatase): 37%; % Depletion ([4]; 10 μM, s9): 32%; Percentage of Initial Parent Administration (Mean ± Std Dev): parent compound ([4]; 10 μM, unprocessed spike): 100 ± 1%; Initial parent depleted in the abiotic control group ([4]; both doses): 5–6%; OH-TPHP glucuronide conjugates, share of the initial TPHP treatment [8]: 65%; Percentage of DPHP formation following incubation [9]: 97%; Percentage of DPHP formation following incubation [10]: 22%
C=C(C)c1ccccc1OP(=O)(Oc1ccccc1)Oc1ccccc1 [mono-(o-isopropenylphenyl)-diphenyl phosphate]	–	–	–	–	–	–	–	–	–	–	–	–	–	–	–	–	–	–	–	–	Detection in rabbit bile [2]: detected
hydroxy-o-isopropylphenyl diphenyl phosphate [Hydroxylated 2IPPDPP]	–	–	–	–	–	–	–	–	–	–	–	–	–	–	–	–	–	–	–	–	Detection in human urine samples (number of samples out of 9) [1]: not detected
mono-isopropenylphenyl diphenyl phosphate	–	–	–	–	–	–	–	–	–	–	–	–	–	–	–	–	–	–	–	–	Detection in human urine samples (number of samples out of 9) [1]: 1
